Literature values, collected in patent publication US7115281B2, “Processes for the preparation of oral dosage formulations of modafinil” (Ranbaxy Laboratories Limited, priority 2002, dated 2006).

How the values were obtained:
[1] = not given; remark: listed apart in the source

For NC(=O)C[S+]([O-])C(c1ccccc1)c1ccccc1 (centres unmarked) [modafinil], the Solubility in water is listed as “less than 1 mg/ml” and the “Stability at higher temperatures” value [1] is listed as “unstable”.
